From patent US12678501B2, “Modulating permeability of the blood cerebrospinal fluid barrier” (MEMORIAL SLOAN-KETTERING CANCER CENTER, priority 2015, dated 2026)

Columns and labels:
[1] = tested on: human choroid plexus epithelial cells (HuCPEpi); assay: Trans-epithelial electrical resistance (TEER) in in vitro model of B-CSF-B; format: cell-based; settings: HuCPEpithelial cells on laminin-coated transwells, after addition of recombinant C3a
Text: (§1) FIG. 7A-7F. C3aR activation alters B-CSF-barrier integrity. (A) Immunofluorescence of mouse choroid plexus for C3aR (red) and the apically expressed SPAK (green). (B) Trans-epithelial resistance in response to C3a in an in vitro model of B-CSF-B employing human choroid plexus epithelial cells (HuCPEpi). (C) Conditioned medium from MDA231 Parental cells (green) supplemented with recombinant mouse C3a (open circles) or vehicle (closed circles) was used to treat the monolayer prior to TEER measurements. (D) Conditioned medium from MDA231 LeptoM cells was not treated with antibody (closed circle), or immunodepleted with anti-C3 (open circles) or IgG control (black squares) prior to TEER measurements. (E) Mice (C3aR^+/+ or ^−/−) were parenterally pretreated with recombinant mouse C3a or vehicle prior to intracardiac infusion of mixed fluorescently labeled dextrans. 30 minutes later, CSF and blood were sampled and analyzed by fluorimetry. In the bar graphs, for each dextran size, fluorescence in animals treated with rmC3a is represented by the bar on the right (vehicle represented by the bar on the left). (F) Mouse choroid plexus treated with C3a or vehicle for 2 hours prior to fixation and staining for ZO-1 and Claudin.
To address the hypothesis that C3aR might function similarly in the choroid plexus, we first established the presence of C3aR on choroid plexus epithelium (FIG. 7A). […]

[2] = Amphiregulin ELISA in CSF and plasma after parenteral C3a; format: in vivo; settings: mouse models, after parenteral administration
Text: FIG. 10A-10D. C3 conditioned CSF by opening the blood-CSF-barrier. (A) Commercial dot-blot array was employed to measure proteins present in CSF of two patients without leptomeningeal metastasis, who later developed leptomeningeal metastasis. […] (B) LLC-LeptoM cells instilled into the cisterna magna of C3aR wild-type (^+/+) or knock-out (^−/−) syngenic mice. Tumor growth was monitored by BLI. (C) ELISA for amphiregulin of CSF from suspected of leptomeningeal metastasis. Final clinical diagnosis is indicated. (D) Mice were parenterally pretreated with recombinant mouse […] or vehicle (green) as described in FIG. 7E. Amphiregulin was measured by ELISA in CSF and plasma.
Leptomeningeal metastasis alters the composition of the CSF (FIG. 10A), including the growth factor amphiregulin (FIG. 10C). Cancer cell growth within the leptomeningeal space is improved in the presence of the C3aR in our models of leptomeningeal metastasis (FIG. 10B) after parenteral administration of C3a, serum amphiregulin is elevated within the CSF in mouse models.

[3] = tested on: choroid plexus epithelial cells; assay: Tight junction staining (ZO-1, claudin immunofluorescence) of choroid plexus; settings: mouse choroid plexus treated 2 hours prior to fixation
Text: as §1, with “(F) Mouse choroid plexus treated with C3a or vehicle for 2 hours prior to fixation and staining for ZO-1 and Claudin.” left out
(§2) The passage of larger molecules was assessed through the use of fluorescently labeled Dextran passage in vivo. […] Thirty minutes after this treatment, CSF was sampled by cisternal tap, and presence of the derivatized dextran was assayed by fluorescence. […]

C3aR = biological target: T1, C3aR (Mus musculus, UniProt O09047); assay: Passage of fluorescently labeled dextrans from blood to CSF in vivo; settings: dextrans of 40 kDa and smaller; CSF sampled 30 minutes after intracardiac dextran; C3aR-dependent (wild type vs knockout mice)
T1 construct: from tissue; host or cells: living mice (in vivo)
T1 sequence (O09047 1-477): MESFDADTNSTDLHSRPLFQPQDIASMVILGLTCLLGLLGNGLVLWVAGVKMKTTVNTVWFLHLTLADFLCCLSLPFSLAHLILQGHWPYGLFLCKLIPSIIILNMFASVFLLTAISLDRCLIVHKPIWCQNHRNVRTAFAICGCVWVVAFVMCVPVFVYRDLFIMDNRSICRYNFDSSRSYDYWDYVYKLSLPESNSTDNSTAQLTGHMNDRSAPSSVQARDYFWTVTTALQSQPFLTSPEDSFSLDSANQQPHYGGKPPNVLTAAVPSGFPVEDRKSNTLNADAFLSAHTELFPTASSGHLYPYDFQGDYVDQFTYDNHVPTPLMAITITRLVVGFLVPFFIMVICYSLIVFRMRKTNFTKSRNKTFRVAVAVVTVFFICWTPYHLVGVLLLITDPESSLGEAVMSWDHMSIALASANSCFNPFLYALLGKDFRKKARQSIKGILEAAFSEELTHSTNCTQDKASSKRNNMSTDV
Text: as §1, with “(F) Mouse choroid plexus treated with C3a or vehicle for 2 hours prior to fixation and staining for ZO-1 and Claudin.” left out
as §2

MDA231-LeptoM cells = assay: Leptomeningeal metastasis model, MDA231-LeptoM cells into cisterna magna, BLI; format: in vivo, mouse; settings: vs vehicle; for tumor growth within the leptomeninges (bioluminescent imaging): 2,000 MDA LeptoM cells into cisterna magna
Description: (§3) FIG. 11A-11C. C3aR as a therapeutic target in leptomeningeal metastasis. (A) 2,000 MDA231-LeptoM cells were introduced into the cisterna magna on day 0. Mice were treated with 10 mg/kg C3aR agonist (Ag), 10 mg/kg antagonist (Ant) or vehicle (Veh) I.P. twice weekly, tumor cell growth was monitored by BLI. n=10 mice per group. ****p<0.0001 (B) Survival analysis of mice treated in (A). (C) 2,000 MDA231-LeptoM, PC9-LeptoM, HCC1954-LeptoM or LCC-LeptoM cells were introduced into the CSF on day 0 and treated with Veh or Ant as described in (A). n=10 mice per group. BLI on day 14 is illustrated. *p<0.05; **p<0.01; *** p<0.001.
In light of the cancer cell dependence on C3 for growth within the leptomeningeal space, as well as C3aR's importance in maintenance of CP barrier function, we elected to assay C3aR antagonist as well as agonists in models of leptomeningeal metastasis. First, 2,000 MDA LeptoM were injected into the cisterna magna of recipient mice. Next, treatment with either vehicle, C3aR agonist or antagonist was initiated. Tumor growth was followed with bioluminescent imaging FIG. 11A.
(§4) Cells corresponding to each of these models were inoculated into the leptomeningeal space of recipient mice on Day 0. Daily systemic treatment with C3aR antagonist SB290157 began on Day 1. Bioluminescent imaging to quantitate tumor cell growth is shown for each of the models, FIG. 11C. […] In this approach, maintenance of B-CSF-B integrity inhibits cancer cell survival by inhibiting cancer cell access to plasma components, including protein, growth factors and metabolic intermediates.

LLC-LeptoM cells = assay: Leptomeningeal metastasis model, LLC-LeptoM cells, BLI; format: in vivo, mouse; settings: systemic treatment from Day 1, BLI on day 14, vs vehicle
Description: as §3, §4

HCC1954-LeptoM cells = assay: Leptomeningeal metastasis model, HCC1954-LeptoM cells, BLI; format: in vivo, mouse; settings: systemic treatment from Day 1, BLI on day 14, vs vehicle
Description: as §3, §4

PC9-LeptoM cells = assay: Leptomeningeal metastasis model, PC9-LeptoM cells, BLI; format: in vivo, mouse; settings: systemic treatment from Day 1, BLI on day 14, vs vehicle
Description: as §3, §4

Molecule | resistance across the monolayer (TEER) [1] | amphiregulin within the CSF [2] | tight junctions between choroid plexus epithelial cells (claudin immunofluorescence) [3] | passage of dextrans from blood to CSF (C3aR) | tumor growth within the leptomeninges (bioluminescent imaging) (MDA231-LeptoM cells; 10 mg/kg I.P. twice weekly) | leptomeningeal tumor growth (BLI) (LLC-LeptoM cells) | leptomeningeal tumor growth (BLI) (MDA231-LeptoM cells; MDA231 model, systemic treatment from Day 1, BLI on day 14) | survival (MDA231-LeptoM cells; MDA LeptoM model, 10 mg/kg I.P. twice weekly) | leptomeningeal tumor growth (BLI) (HCC1954-LeptoM cells) | leptomeningeal tumor growth (BLI) (PC9-LeptoM cells)
recombinant C3a: recombinant C3a, hydrolysis fragment of complement C3, ligand of the C3aR receptor | reduced | elevated | disorganization of tight junctions | increased |  |  |  |  |  | 
O=C(NC1CCN(C(=O)CCc2cccnc2)CC1)C(c1ccccc1)C1CCCCC1 (stereo not drawn) [C3aR agonist, α-cyclohexyl-N-[1-[1-oxo-3-(3-pyridinyl)propyl]-4-piperidinyl]-benzeneacetamide] |  |  |  |  | accelerated |  |  |  |  | 
N=C(N)NCCC[C@H](NC(=O)COCC(c1ccccc1)c1ccccc1)C(=O)O [SB290157, N2-[2-(2,2-diphenylethoxy)acetyl]-L-arginine, 2,2,2-trifluoroacetate] |  |  |  |  | slowed | less leptomeningeal tumor growth | less leptomeningeal tumor growth | survival benefit | less leptomeningeal tumor growth | less leptomeningeal tumor growth
